IC50 data for 50 compounds are collected here from patent US7425640B2, “Substituted 5-carboxyamide pyrazoles and [1,2,4]triazoles as antiviral agents” (priority 2004, dated 2008).

For the test, the target named is HCV RNA-dependent RNA polymerase NS5B (Δ21) (Hepatitis C virus genotype 1b, UniProt P26663). Description: Assay for HCV RNA-dependent RNA polymerase activity (SPA, [3H]-GTP incorporation). Type of test: biochemical. The following applies: 50 nM NS5B (Δ21), class symbols. In a few lines:
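NS5B (Δ21), 50 nM, was incubated 3 h at room temperature with biotinylated oligoG12/polyC template, 5 μM GTP plus [3H]-GTP, in HEPES pH 7.3 with MgCl2 and NaCl. [3H]-GTP incorporation was read by streptavidin SPA. IC50 came from single experiments across 11 two-fold dilutions (0.05–50 μM).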

The mark [1] stands for this setting: read-out: Δ21 Activity (IC50 μM).

Where two headings read alike, the source gives them in different places.

Broadly, the IC50 is the midpoint of a concentration-inhibition curve.

Sequence of HCV RNA-dependent RNA polymerase NS5B (Δ21) (P26663 2420-2989, stated change not applied): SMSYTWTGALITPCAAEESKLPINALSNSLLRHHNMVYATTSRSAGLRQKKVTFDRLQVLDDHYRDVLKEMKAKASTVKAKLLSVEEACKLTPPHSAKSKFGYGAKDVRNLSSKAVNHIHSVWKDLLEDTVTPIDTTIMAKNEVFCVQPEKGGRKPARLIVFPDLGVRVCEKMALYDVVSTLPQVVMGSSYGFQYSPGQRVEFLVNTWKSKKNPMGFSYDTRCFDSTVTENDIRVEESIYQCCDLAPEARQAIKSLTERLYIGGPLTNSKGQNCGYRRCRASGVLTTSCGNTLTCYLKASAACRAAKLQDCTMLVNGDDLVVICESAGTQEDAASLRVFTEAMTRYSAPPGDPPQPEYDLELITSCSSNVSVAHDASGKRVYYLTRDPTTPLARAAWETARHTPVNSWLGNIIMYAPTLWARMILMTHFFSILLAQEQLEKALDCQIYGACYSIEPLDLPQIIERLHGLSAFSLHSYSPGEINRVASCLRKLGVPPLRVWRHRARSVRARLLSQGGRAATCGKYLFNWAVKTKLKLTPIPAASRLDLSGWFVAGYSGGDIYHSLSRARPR

In the case of `CCOC(=O)c1cc(C(=O)N[C@@H]2CCCC[C@@H]2OCc2ccccc2)n(CC(=O)N[C@H]2CCCC[C@H]2OCc2ccccc2)n1` [Compound 139], the IC50 under setting [1] is 0.1 to 1 µM.

As for `O=C(Cn1nc(C(=O)N2CCN(c3ccccc3)CC2)cc1C(=O)N[C@H]1CCCC[C@@H]1OCc1ccccc1)N[C@H]1CCCC[C@@H]1OCc1ccccc1` [Compound 140], the IC50 under setting [1] was in the range of 0.1 to 1 µM.

For `CCOC(=O)c1nc(C(=O)N[C@H]2CCCC[C@@H]2OCc2ccccc2)n(CC(=O)N[C@H]2CCCC[C@@H]2OCc2ccccc2)n1` [Compound 141], under setting [1], the IC50 fell in the range of 0.1 to 1 µM.

On to `O=C(Cn1nc(C(=O)NCc2cccnc2)cc1C(=O)N[C@H]1CCCC[C@@H]1OCc1ccccc1)N[C@H]1CCCC[C@@H]1OCc1ccccc1` [Compound 142], for which the IC50 under setting [1] is 0.1 to 1 µM.

Consider `O=C(Cn1nc(C=NO)cc1C(=O)N[C@H]1CCCC[C@@H]1OCc1ccccc1)N[C@H]1CCCC[C@@H]1OCc1ccccc1` [Compound 143], for which the IC50 under setting [1] is 0.1 to 1 µM.

For `O=C(Cn1nc(NS(=O)(=O)c2cccc3cccnc23)cc1C(=O)N[C@H]1CCCC[C@@H]1OCc1ccccc1)N[C@H]1CCCC[C@@H]1OCc1ccccc1` [Compound 144], under setting [1], the IC50 lay in the range of 0.1 to 1 µM.

On to `CNC(=O)c1cc(C(=O)N[C@H]2CCCC[C@@H]2OCc2ccccc2)n(CC(=O)N[C@H]2CCCC[C@@H]2OCc2ccccc2)n1` [Compound 145], for which, under setting [1], the IC50 was 0.1 to 1 µM.

In the case of `COC(CNC(=O)c1cc(C(=O)N[C@H]2CCCC[C@@H]2OCc2ccccc2)n(CC(=O)N[C@H]2CCCC[C@@H]2OCc2ccccc2)n1)OC` [Compound 146], the IC50 under setting [1] was in the range of 0.1 to 1 µM.

Take `Nc1c(C(=O)O)nn(CC(=O)N[C@H]2CCCC[C@@H]2OCc2ccccc2)c1C(=O)N[C@H]1CCCC[C@@H]1OCc1ccccc1` [Compound 147]: under setting [1], the IC50 was in the range of 0.1 to 1 µM.

With `O=C(Cn1nc(C(=O)NCc2ccc(Cl)cc2Cl)cc1C(=O)N[C@H]1CCCC[C@@H]1OCc1ccccc1)N[C@H]1CCCC[C@@H]1OCc1ccccc1` [Compound 148], under setting [1], the IC50 fell in the range of 0.1 to 1 µM.

Turning to `COC(=O)CCCCCNC(=O)c1cc(C(=O)N[C@H]2CCCC[C@@H]2OCc2ccccc2)n(CC(=O)N[C@H]2CCCC[C@@H]2OCc2ccccc2)n1` [Compound 149], the IC50 under setting [1] was 0.1 to 1 µM.

With `O=C(Cn1nc(C(=O)N2CCOCC2)cc1C(=O)N[C@H]1CCCC[C@@H]1OCc1ccccc1)N[C@H]1CCCC[C@@H]1OCc1ccccc1` [Compound 150], under setting [1], the IC50 was in the range of 0.1 to 1 µM.

As for `O=C(Cn1nc(C(=O)NCCCCCC(=O)ON2C(=O)CCC2=O)cc1C(=O)N[C@H]1CCCC[C@@H]1OCc1ccccc1)N[C@H]1CCCC[C@@H]1OCc1ccccc1` [Compound 151], under setting [1], the IC50 was in the range of 0.1 to 1 µM.

Regarding `CCOC(=O)c1cc(C(=O)N[C@H]2CCCC[C@@H]2OCc2ccccc2)n(CS(=O)(=O)N[C@H]2CCCC[C@@H]2OCc2ccccc2)n1` [Compound 152], the IC50 under setting [1] fell in the range of 0.1 to 1 µM.

`O=C(O)CNC(=O)c1cc(C(=O)N[C@H]2CCCC[C@@H]2OCc2ccccc2)n(CC(=O)N[C@H]2CCCC[C@@H]2OCc2ccccc2)n1` [Compound 153]: under setting [1], the IC50 is 0.1 to 1 µM.

For `N#Cc1ccc(NNC(=O)c2cc(C(=O)N[C@H]3CCCC[C@@H]3OCc3ccccc3)n(CC(=O)N[C@H]3CCCC[C@@H]3OCc3ccccc3)n2)cc1` [Compound 154], the IC50 under setting [1] is 0.1 to 1 µM.

For the compound `CS(=O)(=O)NC(=O)c1cc(C(=O)N[C@H]2CCCC[C@@H]2OCc2ccccc2)n(CC(=O)N[C@H]2CCCC[C@@H]2OCc2ccccc2)n1` [Compound 155], under setting [1], the IC50 is 0.1 to 1 µM.

On to `O=C(Cn1nc(C(=O)N2CCN(Cc3ccccc3)CC2)cc1C(=O)N[C@H]1CCCC[C@@H]1OCc1ccccc1)N[C@H]1CCCC[C@@H]1OCc1ccccc1` [Compound 156], for which the IC50 under setting [1] is 0.1 to 1 µM.

`NC(=O)c1cc(C(=O)N[C@H]2CCCC[C@@H]2OCc2ccccc2)n(CC(=O)N[C@H]2CCCC[C@@H]2OCc2ccccc2)n1` [Compound 157]: under setting [1], the IC50 was 0.1 to 1 µM.

With `CN(C(=O)Cn1nc(C(=O)O)cc1C(=O)N(C)[C@H]1CCCC[C@@H]1OCc1ccccc1)[C@H]1CCCC[C@@H]1OCc1ccccc1` [Compound 158], the IC50 under setting [1] was 0.1 to 1 µM.

On to `O=C(Cn1nc(C(=O)N(c2ccccc2)c2ccccc2)cc1C(=O)N[C@H]1CCCC[C@@H]1OCc1ccccc1)N[C@H]1CCCC[C@@H]1OCc1ccccc1` [Compound 159], for which the IC50 under setting [1] was 0.1 to 1 µM.

On to `O=C(Cn1nc(C(=O)O)cc1C(=O)N[C@H]1CCCC[C@@H]1OCc1ccccc1)Nc1ncccc1Oc1ccccc1` [Compound 160], for which the IC50 under setting [1] fell in the range of 0.1 to 1 µM.

For `O=C(Cn1nc(CO)cc1C(=O)N[C@H]1CCCC[C@@H]1OCc1ccccc1)N[C@H]1CCCC[C@@H]1OCc1ccccc1` [Compound 161], the half-inhibitory concentration (IC50) under setting [1] lay within 0.1 to 1 µM.

`CON=Cc1cc(C(=O)N[C@H]2CCCC[C@@H]2OCc2ccccc2)n(CC(=O)N[C@H]2CCCC[C@@H]2OCc2ccccc2)n1` [Compound 162]: the IC50 under setting [1] lay in the range of 0.1 to 1 µM.

For `CC(C)NC(=O)c1cc(C(=O)N[C@H]2CCCC[C@@H]2OCc2ccccc2)n(CC(=O)N[C@H]2CCCC[C@@H]2OCc2ccccc2)n1` [Compound 163], for the setting “Δ21 Activity (IC50 μM)”, the IC50 was greater than 1 µM.

`CCCONC(=O)c1cc(C(=O)N[C@H]2CCCC[C@@H]2OCc2ccccc2)n(CC(=O)N[C@H]2CCCC[C@@H]2OCc2ccccc2)n1` [Compound 164]: the IC50 under setting [1] lay in the range of 0.1 to 1 µM.

For the compound `O=C(O)CCCCCNC(=O)CCCCCNC(=O)c1cc(C(=O)N[C@H]2CCCC[C@@H]2OCc2ccccc2)n(CC(=O)N[C@H]2CCCC[C@@H]2OCc2ccccc2)n1` [Compound 165], the IC50 under setting [1] lay within 0.1 to 1 µM.

For `O=C(Cn1nc(C(=O)O)cc1C(=O)N[C@H]1CCCC[C@@H]1OCc1ccccc1)N[C@H]1CCCC[C@@H]1NCc1ccccc1` [Compound 166], under setting [1], the IC50 is 0.1 to 1 µM.

For `CC(C)NC(=O)Nc1cc(C(=O)N[C@H]2CCCC[C@@H]2OCc2ccccc2)n(CC(=O)N[C@H]2CCCC[C@@H]2OCc2ccccc2)n1` [Compound 167], the IC50 under setting [1] lay in the range of 0.1 to 1 µM.

With `O=C(Cn1nc(C(=O)NCCCN2CCCC2=O)cc1C(=O)N[C@H]1CCCC[C@@H]1OCc1ccccc1)N[C@H]1CCCC[C@@H]1OCc1ccccc1` [Compound 168], the IC50 (Δ21 Activity (IC50 μM)) is greater than 1 µM.

In the case of `O=C(Cn1nc(C(=O)O)cc1C(=O)N[C@H]1CCCC[C@@H]1OCc1ccccc1)NC1CCC[C@@H]1Sc1ccccc1` (some centres unmarked) [Compound 169], the IC50 (Δ21 Activity (IC50 μM)) is greater than 1 µM.

Where the note is “Δ21 Activity (IC50 μM)”, `O=C(Cn1nc(-c2cccs2)cc1C(=O)N[C@H]1CCCC[C@@H]1OCc1ccccc1)N[C@H]1CCCC[C@@H]1OCc1ccccc1` [Compound 170] registered an IC50 greater than 1 µM.

`C=CCOc1ccccc1NC(=O)Cn1nc(C(=O)O)cc1C(=O)N[C@H]1CCCC[C@@H]1OCc1ccccc1` [Compound 171]: the IC50 (Δ21 Activity (IC50 μM)) was greater than 1 µM.

`CC(C)(C)OC(=O)Nc1cc(C(=O)N[C@H]2CCCC[C@@H]2OCc2ccccc2)n(CC(=O)N[C@H]2CCCC[C@@H]2OCc2ccccc2)n1` [Compound 172]: under “Δ21 Activity (IC50 μM)”, the IC50 is greater than 1 µM.

In the case of `O=C(Cn1nc(C(=O)NC2CCCc3ccccc32)cc1C(=O)N[C@H]1CCCC[C@@H]1OCc1ccccc1)N[C@H]1CCCC[C@@H]1OCc1ccccc1` (some centres unmarked) [Compound 173], for the setting “Δ21 Activity (IC50 μM)”, the IC50 is greater than 1 µM.

`CCOC(=O)c1cc(C(=O)N[C@H]2CCCC[C@@H]2NCc2ccccc2)n(CC(=O)N[C@H]2CCCC[C@@H]2OCc2ccccc2)n1` [Compound 174]: the IC50 (Δ21 Activity (IC50 μM)) is greater than 1 µM.

`Cc1cc(C(=O)N[C@H]2CCCC[C@@H]2OCc2ccccc2)n(CC(=O)N[C@H]2CCCC[C@@H]2OCc2ccccc2)n1` [Compound 175] had an IC50 (Δ21 Activity (IC50 μM)) greater than 1 µM.

Under “Δ21 Activity (IC50 μM)”, `O=C(Cn1nc(C(=O)NCCc2ccccn2)cc1C(=O)N[C@H]1CCCC[C@@H]1OCc1ccccc1)N[C@H]1CCCC[C@@H]1OCc1ccccc1` [Compound 176] yielded an IC50 greater than 1 µM.

Regarding `CCOCCN(CCOCC)C(=O)c1cc(C(=O)N[C@H]2CCCC[C@@H]2OCc2ccccc2)n(CC(=O)N[C@H]2CCCC[C@@H]2OCc2ccccc2)n1` [Compound 177], where the note is “Δ21 Activity (IC50 μM)”, the IC50 was greater than 1 µM.

Where the note is “Δ21 Activity (IC50 μM)”, `CCOC(=O)c1cc(C(=O)N[C@H]2CCCC[C@@H]2OCc2ccccc2)n(CC(=O)N(C)[C@H]2CCCC[C@@H]2OCc2ccccc2)n1` [Compound 178] yielded an IC50 greater than 1 µM.

Take `O=C(Cn1nc(C(=O)Nc2ccccc2-c2ccccc2)cc1C(=O)N[C@H]1CCCC[C@@H]1OCc1ccccc1)N[C@H]1CCCC[C@@H]1OCc1ccccc1` [Compound 179]: where the note is “Δ21 Activity (IC50 μM)”, the IC50 was greater than 1 µM.

Regarding `CC(O)(c1ccc(Cl)cc1)c1cc(C(=O)N[C@H]2CCCC[C@@H]2OCc2ccccc2)n(CC(=O)N[C@H]2CCCC[C@@H]2OCc2ccccc2)n1` (some centres unmarked) [Compound 180], for the setting “Δ21 Activity (IC50 μM)”, the IC50 is greater than 1 µM.

Turning to `CCOC(=O)c1cc(C(=O)N(C)[C@H]2CCCC[C@@H]2OCc2ccccc2)n(CC(=O)N[C@H]2CCCC[C@@H]2OCc2ccccc2)n1` [Compound 181], the IC50 (Δ21 Activity (IC50 μM)) is greater than 1 µM.

For the setting “Δ21 Activity (IC50 μM)”, `O=C(Cn1nc(C(=O)Cc2ccccc2)cc1C(=O)N[C@H]1CCCC[C@@H]1OCc1ccccc1)N[C@H]1CCCC[C@@H]1OCc1ccccc1` [Compound 182] showed an IC50 greater than 1 µM.

For `CCOC(=O)CNC(=O)Nc1cc(C(=O)N[C@H]2CCCC[C@@H]2OCc2ccccc2)n(CC(=O)N[C@H]2CCCC[C@@H]2OCc2ccccc2)n1` [Compound 183], the IC50 (Δ21 Activity (IC50 μM)) was greater than 1 µM.

Under “Δ21 Activity (IC50 μM)”, `COC(=O)CCCCCNC(=O)CCCCCNC(=O)c1cc(C(=O)N[C@H]2CCCC[C@@H]2OCc2ccccc2)n(CC(=O)N[C@H]2CCCC[C@@H]2OCc2ccccc2)n1` [Compound 184] returned an IC50 greater than 1 µM.

Take `O=C(Cn1nc(C(=O)O)cc1C(=O)N[C@H]1CCCC[C@@H]1OCc1ccccc1)Nc1ccc2c(c1)OCO2` [Compound 185]: the IC50 (Δ21 Activity (IC50 μM)) is greater than 1 µM.

Regarding `CCOC(=O)c1cc(C(=O)N[C@H]2CCCC[C@@H]2OCc2ccccc2)n(C(C)C(=O)N[C@H]2CCCC[C@@H]2OCc2ccccc2)n1` (some centres unmarked) [Compound 186], the IC50 (Δ21 Activity (IC50 μM)) is greater than 1 µM.

The compound `O=C(Cn1nc(C(=O)NCCCn2ccnc2)cc1C(=O)N[C@H]1CCCC[C@@H]1OCc1ccccc1)N[C@H]1CCCC[C@@H]1OCc1ccccc1` [Compound 188] displayed an IC50 (Δ21 Activity (IC50 μM)) greater than 1 µM.

The compound `O=Cc1cc(C(=O)N[C@H]2CCCC[C@@H]2OCc2ccccc2)n(CC(=O)N[C@H]2CCCC[C@@H]2OCc2ccccc2)n1` [Compound 189] showed an IC50 (Δ21 Activity (IC50 μM)) greater than 1 µM.
